As usually defined, the IC50 is the concentration at which inhibition is half-maximal. The term inhibition denotes how much of the control response was suppressed.

This note sets out measurements from ChEMBL document CHEMBL5532653, “Dual inhibitors of HDAC and other epigenetic regulators: A novel strategy for cancer treatment” (Eur J Med Chem, 2024).

The test system of one series is D283 Med. The series is described as follows: Antiproliferative activity against human D283 Med cells assessed as inhibition of cell growth measured after 72 hrs by CellTiter-Glo assay. Format: functional, cell-based.
The test system of a further series is K562. The experiment in a line: Antiproliferative activity against human K562 cells assessed as reduction in cell viability by MTT assay. Format: functional, cell-based. Background: Formazan colour is commonly taken as a measure of viable cells.
In the next series the test system is HeLa. The series is described as follows: Antiproliferative activity against human HeLa cells assessed as reduction in cell viability by MTT assay. Format: functional, cell-based.
Series [1] in a line: Cytotoxicity against human HEK293T cells assessed as cell growth inhibition by MTT assay. Format: toxicity, cell-based, HEK-293T.
The subject of series [2] is MCF7. The experiment in a line: Antiproliferative activity against human MCF7 cells assessed as reduction in cell growth incubated for 72 hrs by MTT assay. Format: functional, cell-based. The settings on record: MCF7, 72 h.
The subject of series [3] is A549. The experiment in a line: Antiproliferative activity against human A549 cells assessed as reduction in cell viability measured after 48 hrs by MTT assay. The class given is functional, cell-based. The settings on record: A549, 48 h.
A short description of series [4]: Inhibition of HDAC1 ([…] residues) (unknown origin) FLAG-tagged CoREST1 (unknown origin) transfected in HEK293F cells using fluorogenic p53 (RHKK(Ac)AMC) as substrate preincubated for 30 mins followed by substrate addition and measured after 15 mins by fluorescence based analysis. The arrangement: species or system Homo sapiens.
Series [5] can be described thus: Antiproliferative activity against human MET-1 cells assessed as reduction in cell viability incubated for 72 hrs by MTT assay. Format: functional, cell-based. Particulars: MET-1, 72 h.
The test system of another series is SK-MEL-5. The experiment in a line: Antiproliferative activity against human SK-MEL-5 cells assessed as reduction in cell viability incubated for 72 hrs by MTT assay. Format: functional, cell-based. Particulars: SK-MEL-5, 72 h.
The nature of series [6]: Antiproliferative activity against human SCCIC1 cells assessed as cell growth inhibition measured after 72 hrs. The class given is functional, cell-based. The settings on record: SCCIC1, 72 h.
Series [7] is described as follows: Antiproliferative activity against human WM983B cells assessed as reduction in cell growth incubated for 72 hrs by MTT assay. Format: functional, cell-based.
A further series concerns MEF. The series is described as follows: Antiproliferative activity against mouse MEF cells assessed as cell growth inhibition measured after 48 hrs by MTT assay. The class given is functional, cell-based.
Another series relates to NCI-H460. The series is described as follows: Antiproliferative activity against human NCI-H460 cells assessed as reduction in cell growth measured after 72 hrs by MTT assay. The class given is functional, cell-based. The settings on record: NCI-H460, 72 h.
Series [8] in a line: Cytotoxicity against human CLL cells assessed as reduction in cell viability at 5 uM relative to control. Format: toxicity, cell-based.
For series [9], the system named is U-937. The series is described as follows: Antiproliferative activity against human U-937 cells assessed as inhibition of cell growth at 3 uM measured after 72 hrs by CellTiter-Glo luminescent cell viability assay relative to control. The class given is functional. Background: ATP-based viability assays read luminescence as a measure of living cells.
Series [10] deals with A549. The series is described as follows: Antiproliferative activity against human A549 cells assessed as reduction in cell growth by MTT assay. The class given is functional, cell-based.
A further series deals with MDA-MB-231. The experiment in a line: Antiproliferative activity against human MDA-MB-231 cells assessed as reduction in cell growth by MTT assay. The class given is functional, cell-based.
The target of a further series is DNMT3B-DNMT3L complex (Homo sapiens, UniProt Q9UBC3). The series is described as follows: Inhibition of DNMT3B/3L (unknown origin). Format: protein-complex assay.
The test system of series [11] is MCF7. The series is described as follows: Antiproliferative activity against human MCF7 cells assessed as reduction in cell growth by MTT assay. Format: functional, cell-based.
Series [12] deals with T1, Protein deacetylase HDAC6 (Homo sapiens, UniProt Q9UBN7).
T1 sequence (Q9UBN7 whole entry): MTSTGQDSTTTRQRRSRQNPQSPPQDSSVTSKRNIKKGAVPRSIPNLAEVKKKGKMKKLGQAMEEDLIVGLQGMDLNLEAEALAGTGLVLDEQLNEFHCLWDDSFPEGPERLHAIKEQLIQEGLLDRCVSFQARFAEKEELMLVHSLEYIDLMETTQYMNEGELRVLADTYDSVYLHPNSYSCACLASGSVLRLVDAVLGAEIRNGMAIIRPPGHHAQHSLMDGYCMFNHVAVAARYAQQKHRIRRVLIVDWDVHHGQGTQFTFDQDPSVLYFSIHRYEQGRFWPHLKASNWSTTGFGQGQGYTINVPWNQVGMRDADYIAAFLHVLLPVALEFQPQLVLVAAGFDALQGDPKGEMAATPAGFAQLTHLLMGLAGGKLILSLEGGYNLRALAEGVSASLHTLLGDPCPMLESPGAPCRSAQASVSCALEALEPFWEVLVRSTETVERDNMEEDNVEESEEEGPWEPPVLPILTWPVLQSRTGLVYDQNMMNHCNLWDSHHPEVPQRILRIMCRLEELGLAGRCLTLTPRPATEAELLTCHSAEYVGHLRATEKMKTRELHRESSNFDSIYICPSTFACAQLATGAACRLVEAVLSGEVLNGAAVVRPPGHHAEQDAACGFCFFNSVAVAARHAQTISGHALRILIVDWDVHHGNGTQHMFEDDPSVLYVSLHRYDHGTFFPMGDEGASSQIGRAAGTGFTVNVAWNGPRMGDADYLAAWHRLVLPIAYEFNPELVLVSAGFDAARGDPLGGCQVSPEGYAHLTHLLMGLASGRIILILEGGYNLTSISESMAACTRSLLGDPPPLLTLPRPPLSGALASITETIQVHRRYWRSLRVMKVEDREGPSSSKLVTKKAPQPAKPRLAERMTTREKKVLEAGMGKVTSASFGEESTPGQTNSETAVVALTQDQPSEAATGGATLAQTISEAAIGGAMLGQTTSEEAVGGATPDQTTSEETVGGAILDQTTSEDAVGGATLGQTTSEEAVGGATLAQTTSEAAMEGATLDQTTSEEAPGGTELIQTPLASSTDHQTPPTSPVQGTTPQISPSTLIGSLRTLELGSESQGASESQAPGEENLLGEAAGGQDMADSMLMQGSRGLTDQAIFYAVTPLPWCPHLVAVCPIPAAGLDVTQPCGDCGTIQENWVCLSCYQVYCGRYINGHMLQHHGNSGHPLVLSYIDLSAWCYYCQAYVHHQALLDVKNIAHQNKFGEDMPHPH
The series is described as follows: Inhibition of HDAC6 (unknown origin) using Ac-peptide as substrate preincubated for 15 mins followed by substrate addition and measured after 1 hr by HTRF analysis. In general terms: In TR-FRET formats the signal depends on donor and acceptor labels being close together.

Series [13] deals with T2, Histone deacetylase 1 (Homo sapiens, UniProt Q13547). The experiment in a line: Inhibition of HDAC1 (unknown origin) using ArgHisLysLys(Ac) as substrate by fluorescence based analysis.
Series [14] has as its target T3, DNA (cytosine-5)-methyltransferase 1 (Homo sapiens, UniProt P26358). The experiment in a line: Inhibition of DNMT1 (unknown origin).
In a further series the target is DNMT3A2/3L complex (Homo sapiens, UniProt Q9Y6K1). The series is described as follows: Inhibition of DNMT3A/DNMT3L (unknown origin). The class given is protein-complex assay.
Series [15] addresses Bromodomain testis-specific protein (Homo sapiens, UniProt Q58F21). The series is described as follows: Inhibition of BRDT BD2 (unknown origin) by TR-FRET assay.
Series [16] addresses T4, Bromodomain-containing protein 3 (Homo sapiens, UniProt Q15059). The experiment in a line: Inhibition of recombinant BRD3 BD1 (unknown origin) incubated for 120 mins by TR-FRET assay.
Series [17] deals with T5, Histone deacetylase 2 (Homo sapiens, UniProt Q92769). The experiment in a line: Inhibition of HDAC2 (unknown origin) by fluorescence based analysis.
For series [18], the target named is T1, Protein deacetylase HDAC6. The series is described as follows: Inhibition of HDAC6 (unknown origin) by fluorescence based assay.
The target in series [19] is T6, Bromodomain-containing protein 2 (Homo sapiens, UniProt P25440). The experiment in a line: Inhibition of BRD2 BD2 (unknown origin) incubated for 180 min by TR-FRET assay.
For the next series, the target named is Histone deacetylase 8 (Homo sapiens, UniProt Q9BY41). The experiment in a line: Inhibition of HDAC8 (unknown origin) using Fluoro-Substrate Peptide as substrate by fluorescence assay.
The target of series [20] is T6, Bromodomain-containing protein 2. The experiment in a line: Inhibition of recombinant BRD2 BD1 (unknown origin) incubated for 120 mins by TR-FRET assay.
Series [21] deals with T4, Bromodomain-containing protein 3. The series is described as follows: Inhibition of BRD3 BD2 (unknown origin) incubated for 180 min by TR-FRET assay.
The next series has as its target Histone deacetylase 3 (Homo sapiens, UniProt O15379). The experiment in a line: Inhibition of HDAC3 (unknown origin) using biotinylated histone H3 KAc peptide (1 to 21 residues) as substrate by HTRF assay.
The next series deals with Histone deacetylase. The series is described as follows: Inhibition of human recombinant HDAC in HeLa cells using Boc-Lys(Ac)-AMC or Boc-Lys(Tfa)-AMC as fluorogenic substrate preincubated for 10 mins followed by substrate addition and measured after 1 hr by fluorescence based analysis. The class given is cell-based.
Series [22] addresses T1, Protein deacetylase HDAC6. The series is described as follows: Inhibition of human recombinant HDAC6 in HeLa cells using Boc-Lys(Ac)-AMC or Boc-Lys(Tfa)-AMC as fluorogenic substrate preincubated for 10 mins followed by substrate addition and measured after 1 hr by fluorescence based analysis. Format: cell-based.
The target in series [23] is T5, Histone deacetylase 2. The experiment in a line: Inhibition of human recombinant HDAC2 in HeLa cells using Boc-Lys(Ac)-AMC or Boc-Lys(Tfa)-AMC as fluorogenic substrate preincubated for 10 mins followed by substrate addition and measured after 1 hr by fluorescence based analysis. The class given is cell-based.
The target in series [24] is T3, DNA (cytosine-5)-methyltransferase 1. The series is described as follows: Inhibition of DNMT1 (unknown origin) using SAM as substrate at 1 uM by fluorescence assay relative to control.
Series [25] relates to U-937. The experiment in a line: Antiproliferative activity against human U-937 cells assessed as reduction in cell growth incubated for 72 hrs by MTT assay. Format: functional, cell-based. The settings on record: U-937, 72 h.
Series [26] has as its target T2, Histone deacetylase 1. The series is described as follows: Inhibition of HDAC1 (unknown origin) using Boc-Lys(Ac)-AMC or Boc-Lys(Tfa)-AMC as substrate incubated for 1 hr by fluorescence based analysis.
For series [27], the target named is T1, Protein deacetylase HDAC6. The series is described as follows: Inhibition of HDAC6 (unknown origin) using expressed in Sf9 cells using Boc-Lys(acetyI)-AMC as substrate preincubated for 1 hr followed by substrate addition and measured after 30 mins by fluorescence based analysis.

T5 sequence (Q92769 whole entry): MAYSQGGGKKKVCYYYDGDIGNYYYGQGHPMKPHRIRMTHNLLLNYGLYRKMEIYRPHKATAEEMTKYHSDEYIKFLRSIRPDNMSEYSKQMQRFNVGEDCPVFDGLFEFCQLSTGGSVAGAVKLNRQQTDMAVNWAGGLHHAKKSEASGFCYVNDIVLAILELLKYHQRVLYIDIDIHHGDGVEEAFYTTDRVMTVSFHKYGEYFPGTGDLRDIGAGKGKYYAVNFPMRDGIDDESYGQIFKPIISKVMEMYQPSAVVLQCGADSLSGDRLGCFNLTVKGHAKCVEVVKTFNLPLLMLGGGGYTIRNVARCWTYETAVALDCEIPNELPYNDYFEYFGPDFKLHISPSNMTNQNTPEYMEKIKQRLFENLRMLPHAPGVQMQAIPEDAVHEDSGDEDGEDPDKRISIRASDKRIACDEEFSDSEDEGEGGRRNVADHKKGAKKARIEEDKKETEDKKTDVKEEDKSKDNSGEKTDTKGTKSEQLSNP
T6 sequence (P25440 whole entry): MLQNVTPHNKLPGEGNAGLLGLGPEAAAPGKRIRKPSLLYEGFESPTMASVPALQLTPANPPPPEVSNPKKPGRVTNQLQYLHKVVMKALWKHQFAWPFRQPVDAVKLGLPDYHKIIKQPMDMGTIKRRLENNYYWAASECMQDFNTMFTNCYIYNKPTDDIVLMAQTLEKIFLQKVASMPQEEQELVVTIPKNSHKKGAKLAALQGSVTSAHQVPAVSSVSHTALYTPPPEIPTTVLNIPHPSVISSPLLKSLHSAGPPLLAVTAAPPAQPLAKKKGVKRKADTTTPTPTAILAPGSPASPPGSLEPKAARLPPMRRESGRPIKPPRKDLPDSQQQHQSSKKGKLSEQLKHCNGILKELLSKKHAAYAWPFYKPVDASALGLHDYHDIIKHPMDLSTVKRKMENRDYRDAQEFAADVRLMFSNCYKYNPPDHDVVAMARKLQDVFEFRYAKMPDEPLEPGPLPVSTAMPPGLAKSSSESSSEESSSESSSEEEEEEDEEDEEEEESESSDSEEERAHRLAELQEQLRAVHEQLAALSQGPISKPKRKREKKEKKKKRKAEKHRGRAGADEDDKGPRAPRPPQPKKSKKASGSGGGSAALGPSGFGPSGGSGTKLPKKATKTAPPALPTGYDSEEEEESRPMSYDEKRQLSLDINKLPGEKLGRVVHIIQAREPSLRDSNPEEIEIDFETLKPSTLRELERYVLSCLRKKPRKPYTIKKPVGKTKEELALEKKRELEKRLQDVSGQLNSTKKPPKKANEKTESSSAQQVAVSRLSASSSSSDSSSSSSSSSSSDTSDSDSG
T2 sequence (Q13547 whole entry): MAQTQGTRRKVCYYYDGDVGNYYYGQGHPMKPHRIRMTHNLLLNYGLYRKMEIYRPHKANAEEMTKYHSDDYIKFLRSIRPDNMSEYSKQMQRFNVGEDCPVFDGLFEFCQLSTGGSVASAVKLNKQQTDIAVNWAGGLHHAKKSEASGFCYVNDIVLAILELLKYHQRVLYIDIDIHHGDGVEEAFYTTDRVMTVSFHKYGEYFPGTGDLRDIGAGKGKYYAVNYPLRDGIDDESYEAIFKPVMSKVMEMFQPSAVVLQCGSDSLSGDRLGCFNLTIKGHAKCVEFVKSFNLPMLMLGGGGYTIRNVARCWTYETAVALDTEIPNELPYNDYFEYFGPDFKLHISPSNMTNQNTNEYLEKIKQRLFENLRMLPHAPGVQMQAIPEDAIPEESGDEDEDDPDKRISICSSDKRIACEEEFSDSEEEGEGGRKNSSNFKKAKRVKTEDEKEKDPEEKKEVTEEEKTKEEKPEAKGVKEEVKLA
T4 sequence (Q15059 whole entry): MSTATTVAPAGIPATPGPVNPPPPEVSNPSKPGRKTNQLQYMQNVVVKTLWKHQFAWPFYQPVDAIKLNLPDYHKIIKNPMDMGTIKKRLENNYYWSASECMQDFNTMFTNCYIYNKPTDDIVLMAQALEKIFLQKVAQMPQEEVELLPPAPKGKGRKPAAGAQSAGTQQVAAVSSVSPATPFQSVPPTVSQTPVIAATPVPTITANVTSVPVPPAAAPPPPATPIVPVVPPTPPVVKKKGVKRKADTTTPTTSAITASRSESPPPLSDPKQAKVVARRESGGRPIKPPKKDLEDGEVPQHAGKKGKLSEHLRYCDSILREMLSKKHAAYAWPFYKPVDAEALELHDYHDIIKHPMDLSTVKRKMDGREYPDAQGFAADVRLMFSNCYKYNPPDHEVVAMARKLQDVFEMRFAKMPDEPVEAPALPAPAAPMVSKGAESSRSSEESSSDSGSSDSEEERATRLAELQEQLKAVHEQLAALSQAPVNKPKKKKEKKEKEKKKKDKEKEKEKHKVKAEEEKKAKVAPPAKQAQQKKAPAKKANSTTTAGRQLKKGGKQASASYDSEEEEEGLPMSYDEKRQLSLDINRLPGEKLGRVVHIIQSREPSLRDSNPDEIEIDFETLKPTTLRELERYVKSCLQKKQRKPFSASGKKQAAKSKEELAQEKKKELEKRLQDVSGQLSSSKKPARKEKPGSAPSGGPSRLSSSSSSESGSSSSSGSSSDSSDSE
T3 sequence (P26358 whole entry): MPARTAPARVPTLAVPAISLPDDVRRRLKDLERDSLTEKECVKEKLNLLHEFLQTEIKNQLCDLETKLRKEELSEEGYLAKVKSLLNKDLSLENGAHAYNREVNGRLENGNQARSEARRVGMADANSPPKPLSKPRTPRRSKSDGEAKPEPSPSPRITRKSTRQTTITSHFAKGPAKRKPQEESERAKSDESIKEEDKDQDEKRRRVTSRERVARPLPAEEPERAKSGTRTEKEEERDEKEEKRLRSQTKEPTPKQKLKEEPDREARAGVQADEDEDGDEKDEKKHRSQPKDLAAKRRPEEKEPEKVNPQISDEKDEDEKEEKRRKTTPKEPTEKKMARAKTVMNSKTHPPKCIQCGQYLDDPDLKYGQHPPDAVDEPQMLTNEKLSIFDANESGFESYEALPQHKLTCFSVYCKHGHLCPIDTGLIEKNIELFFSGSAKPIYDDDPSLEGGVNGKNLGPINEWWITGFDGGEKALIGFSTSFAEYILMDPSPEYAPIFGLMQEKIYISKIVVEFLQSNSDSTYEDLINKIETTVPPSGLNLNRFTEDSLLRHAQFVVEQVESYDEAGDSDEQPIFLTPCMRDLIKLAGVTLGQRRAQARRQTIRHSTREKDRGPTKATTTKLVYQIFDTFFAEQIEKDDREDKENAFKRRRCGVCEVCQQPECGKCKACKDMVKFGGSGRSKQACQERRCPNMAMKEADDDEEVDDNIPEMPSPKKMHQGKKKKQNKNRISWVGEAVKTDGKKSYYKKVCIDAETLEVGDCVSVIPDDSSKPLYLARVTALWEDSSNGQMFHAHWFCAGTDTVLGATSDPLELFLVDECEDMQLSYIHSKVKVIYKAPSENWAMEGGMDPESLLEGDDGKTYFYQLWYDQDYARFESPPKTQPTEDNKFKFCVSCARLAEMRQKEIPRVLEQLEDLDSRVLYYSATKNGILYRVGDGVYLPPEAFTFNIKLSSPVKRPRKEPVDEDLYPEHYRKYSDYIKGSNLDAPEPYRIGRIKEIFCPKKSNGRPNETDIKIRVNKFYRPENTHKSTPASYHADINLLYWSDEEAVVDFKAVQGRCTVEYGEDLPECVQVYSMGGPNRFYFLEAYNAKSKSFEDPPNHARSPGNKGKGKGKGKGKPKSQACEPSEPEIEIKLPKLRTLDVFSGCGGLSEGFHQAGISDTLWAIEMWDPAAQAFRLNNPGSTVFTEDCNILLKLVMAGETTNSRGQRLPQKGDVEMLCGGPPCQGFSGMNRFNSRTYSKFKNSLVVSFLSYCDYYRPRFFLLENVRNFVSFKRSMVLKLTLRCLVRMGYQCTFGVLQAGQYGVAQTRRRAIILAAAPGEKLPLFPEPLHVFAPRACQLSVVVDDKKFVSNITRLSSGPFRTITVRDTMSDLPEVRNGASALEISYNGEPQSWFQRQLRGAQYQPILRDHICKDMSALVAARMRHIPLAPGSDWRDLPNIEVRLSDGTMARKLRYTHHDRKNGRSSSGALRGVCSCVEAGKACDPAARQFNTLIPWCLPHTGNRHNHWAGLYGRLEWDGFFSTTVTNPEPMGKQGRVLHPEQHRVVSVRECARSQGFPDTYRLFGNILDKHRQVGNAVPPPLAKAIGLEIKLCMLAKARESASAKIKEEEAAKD
Chain of Histone deacetylase 3 (O15379 whole entry, the tested form may be a part): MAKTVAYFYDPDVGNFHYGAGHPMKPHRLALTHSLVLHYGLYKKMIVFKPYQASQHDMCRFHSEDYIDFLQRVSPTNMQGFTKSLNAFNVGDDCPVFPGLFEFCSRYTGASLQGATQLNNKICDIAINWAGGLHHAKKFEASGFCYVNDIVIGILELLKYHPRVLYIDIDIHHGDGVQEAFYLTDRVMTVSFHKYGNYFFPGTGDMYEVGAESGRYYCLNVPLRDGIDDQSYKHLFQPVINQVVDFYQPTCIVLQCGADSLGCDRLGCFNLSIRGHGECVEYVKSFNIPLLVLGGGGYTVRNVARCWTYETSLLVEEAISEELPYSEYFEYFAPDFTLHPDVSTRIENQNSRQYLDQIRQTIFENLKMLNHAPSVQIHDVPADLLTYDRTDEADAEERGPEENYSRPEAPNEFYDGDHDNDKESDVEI
Chain of Histone deacetylase 8 (Q9BY41 whole entry): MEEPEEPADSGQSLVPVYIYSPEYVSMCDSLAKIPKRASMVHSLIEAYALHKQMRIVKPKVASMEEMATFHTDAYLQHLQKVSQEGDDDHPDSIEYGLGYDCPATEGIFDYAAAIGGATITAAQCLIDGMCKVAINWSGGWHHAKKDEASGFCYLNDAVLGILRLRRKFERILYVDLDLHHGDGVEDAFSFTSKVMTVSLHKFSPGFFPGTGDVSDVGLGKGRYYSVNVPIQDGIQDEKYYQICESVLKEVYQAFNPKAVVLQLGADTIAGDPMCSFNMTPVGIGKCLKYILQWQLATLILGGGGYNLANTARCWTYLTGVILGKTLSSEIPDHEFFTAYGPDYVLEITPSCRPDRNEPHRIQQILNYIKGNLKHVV

In the case of `Cn1cc(-c2ccc(S(=O)(=O)n3ccc(/C=C/C(=O)Nc4ccccc4N)c3)cc2)cn1` [DOMATINOSTAT], the IC50 with D283 Med worked out at 150 nM.

Regarding `COc1ccc2c(NC3CCN(Cc4ccccc4)CC3)nc(NCCNC(=O)CCCCC(=O)NO)nc2c1`, the IC50 was determined as 5740 nM with K562; 15300 nM in the series with HeLa; 20000 nM in [1]; 37400 nM in the series on MCF7 [2]; 36200 nM in the series with A549 [3].

For `Nc1ccccc1NC(=O)c1ccc(CCCC(=O)Nc2ccc(C3CC3N)cc2)cc1` (centres undefined), the IC50 in series [4] worked out at 206 nM; in series [5] it was 6 nM; with SK-MEL-5 it was 130 nM; in series [6], 41 nM; in [7], 200 nM.

Take `Cn1c(CCCCCCC(=O)NO)nc2cc(N(CCCl)CCCl)ccc21` [TINOSTAMUSTINE]: the values for the half-inhibitory concentration (IC50) in the series with MEF and in the series with NCI-H460 were 5700 nM and 2200 nM, respectively. In addition, the Activity in series [8] is ~ 100 nM.

For the compound `Cc1sc2c(c1C)C(c1ccc(Cl)cc1)=N[C@@H](CC(=O)NCCCC(=O)Nc1ccccc1N)c1nnc(C)n1-2`, in the series with U-937 [9], the inhibition at 3 µM is 84%.

For `O=C(NO)C1CCN(C[C@@H](O)COC(Cn2c3ccccc3c3ccccc32)Cn2c3ccccc3c3ccccc32)CC1`, the IC50 in the series on A549 [10] is 3920 nM; in the series with MDA-MB-231, 4650 nM; on DNMT3B-DNMT3L complex, 1320 nM; with MCF7 [11] it was 1880 nM; in series [12] it was more than 100000 nM; against Histone deacetylase 1 [13], 4160 nM. The IC50 in series [14] came out at 2020 nM; at DNMT3A2/3L complex it was 930 nM.

For `Cc1sc2c(c1C)C(c1ccc(Cl)cc1)=N[C@@H](CC(=O)Nc1ccc(C(=O)NO)cc1)c1nnc(C)n1-2`, the half-inhibitory concentration (IC50) turned out to be 32200 nM in [15]; 133 nM in [16]; 52 nM against Histone deacetylase 2 [17]; 34 nM in series [18]; 78 nM in series [19]; 192 nM at Histone deacetylase 8. In addition, the IC50 in series [20] was 316 nM; in series [21], 38 nM; at Histone deacetylase 3, 39 nM.

Consider `Cc1noc(C)c1-c1ccc2c(c1)c(Cc1ccc(F)cc1)cn2CCCCCCC(=O)NO`, for which the IC50 at Histone deacetylase is 291 nM; in series [22], more than 1000 nM; at Histone deacetylase 2 [23] it was 29 nM.

As to `Nc1ncnc2c1ncn2Cc1ccc(-c2cn(CCCCCCC(=O)NO)nn2)cc1`, the inhibition in series [24] is 44.5%. Besides, the IC50 with U-937 [25] was 1300 nM; at Histone deacetylase 1 [26], 2.4 nM; in series [27], 4.8 nM.
